The source of these data is article PMC5898815 (Journal of medicinal chemistry, 2018).

Structures are written as SMILES.

One data set in a line: PAMPA permeability. The class given is in vitro ADME.
Details: not given
Take `Cc1ccccc1CN1CCC(NC(=O)Nc2cccc(C(F)(F)F)c2)CC1` [Compound 13]: the Pampa is reported as 1200 ± 35 ×10^−6 cm/s. Turning to `O=C(Nc1cccc(C(F)(F)F)c1)NC1CCN(Cc2ccccc2F)CC1` [Compound 15], the Pampa is 1500 ± 1 ×10^−6 cm/s.

Take `Cc1cccc(CN2CCC(NC(=O)Nc3cccc(C(F)(F)F)c3)CC2)c1` [Compound 16]: the Pampa was >0.0022 cm/s. On to `O=C(Nc1cccc(C(F)(F)F)c1)NC1CCN(Cc2cccc(Cl)c2)CC1` [Compound 17], for which the Pampa is listed as 1700 ± 1 ×10^−6 cm/s.

`O=C(Nc1cccc(C(F)(F)F)c1)NC1CCN(Cc2cccc(F)c2)CC1` [Compound 18]: the Pampa was >0.0022 cm/s.

For the compound `Cc1ccc(CN2CCC(NC(=O)Nc3cccc(C(F)(F)F)c3)CC2)cc1` [Compound 19], the Pampa was >0.0022 cm/s. Turning to `O=C(Nc1cccc(C(F)(F)F)c1)NC1CCN(Cc2ccc(Cl)cc2)CC1` [Compound 20], the Pampa is 1300 ± 43 ×10^−6 cm/s. As to `O=C(Nc1cccc(C(F)(F)F)c1)NC1CCN(Cc2ccc(F)cc2)CC1` [Compound 21], the Pampa is >0.0022 cm/s. `O=C(Nc1ccccc1)NC1CCN(Cc2ccccc2)CC1` [Compound 23]: the Pampa is recorded as 1400 ± 250 ×10^−6 cm/s. Same read-out and setting: as for `Cc1ccc(NC(=O)NC2CCN(Cc3ccccc3)CC2)cc1Cl` [Compound 25], the figure is >0.0022 cm/s. For the compound `Cn1nccc1-c1cccc(NC(=O)NC2CCN(Cc3ccccc3)CC2)c1` [Compound 32], the Pampa is >0.0022 cm/s. On the same count and under the same terms, the figure for `CCCN1CCC(N(CCC)C(=O)Nc2cccc(C(F)(F)F)c2)CC1` [Compound 35] is 1600 ±170 ×10^−6 cm/s; for `CCCCN(C(=O)Nc1cccc(C(F)(F)F)c1)C1CCN(CCC)CC1` [Compound 36] it is >0.0022 cm/s; for `CCCN1CCC(N(CC(C)C)C(=O)Nc2cccc(C(F)(F)F)c2)CC1` [Compound 37] it is 1900±200 ×10^−6 cm/s. As to `CCCN1CCC(N(CCC(C)C)C(=O)Nc2cccc(C(F)(F)F)c2)CC1` [Compound 38], the Pampa is 1500 ±5.4 ×10^−6 cm/s.

For the compound `CCCN1CCC(N(CCOC)C(=O)Nc2cccc(C(F)(F)F)c2)CC1` [Compound 39], the Pampa was 1600 ± 1 ×10^−6 cm/s. In the case of `CCCN1CCC(N(CC2CCCCC2)C(=O)Nc2cccc(C(F)(F)F)c2)CC1` [Compound 40], the Pampa is >0.0022 cm/s. Take `CCCN1CCC(N(Cc2ccco2)C(=O)Nc2cccc(C(F)(F)F)c2)CC1` [Compound 41]: the Pampa is >0.0022 cm/s. Take `CCCN1CCC(N(Cc2cccnc2)C(=O)Nc2cccc(C(F)(F)F)c2)CC1` [Compound 43]: the Pampa is recorded as 1300 ±79 ×10^−6 cm/s.

For `CCCN1CCC(N(Cc2ccc3c(c2)OCO3)C(=O)Nc2cccc(C(F)(F)F)c2)CC1` [Compound 45, 1-(benzo[d][1,3]dioxol-5-ylmethyl)-1-(1-propylpiperidin-4-yl)-3-(3-(trifluoromethyl)phenyl)urea], the Pampa is >0.0022 cm/s.

Regarding `O=C(Nc1cccc(C(F)(F)F)c1)N(Cc1ccccc1)C1CCNCC1` [Compound 47], the Pampa is >0.0022 cm/s. On to `CCCCCN1CCC(N(Cc2ccccc2)C(=O)Nc2cccc(C(F)(F)F)c2)CC1` [Compound 50], for which the Pampa is given as 1400 ± 540 ×10^−6 cm/s. With `O=C(Nc1cccc(C(F)(F)F)c1)N(Cc1ccccc1)C1CCN(CC2CCCCC2)CC1` [Compound 58], the Pampa is <1e-06 cm/s.

As to `CCCS(=O)(=O)N1CCC(N(Cc2ccccc2)C(=O)Nc2cccc(C(F)(F)F)c2)CC1` [Compound 61], the Pampa was <1e-06 cm/s. For the compound `CCCCS(=O)(=O)N1CCC(N(Cc2ccccc2)C(=O)Nc2cccc(C(F)(F)F)c2)CC1` [Compound 62], the Pampa is <1e-06 cm/s.

The same data set, now with this note: mean ± SD.
In the case of `O=C(Nc1cccc(C(F)(F)F)c1)N(Cc1ccccc1)C1CCN(Cc2cccnc2)CC1` [Compound 67], the Pampa is >0.0022 cm/s. As to `O=C(Nc1cccc(C(F)(F)F)c1)N(Cc1ccccc1)C1CCN(Cc2ccc(F)cc2)CC1` [Compound 68], the Pampa was >0.0022 cm/s.
